In US8173808B2, “Substituted naphthalenyl-pyrimidine compounds” (ArQule, Inc., priority 2009, dated 2012):

Tests used:
Conditions in all cases: class symbol for inhibition
[1] = target: full length inactive AKT1 protein (Homo sapiens, UniProt P31749); assay: AKT activity; thermal shift binding assay
Procedure: Aliquots of compounds in DMSO (1 μL @ 375 μM) were placed in the V bottom 96 well PCR plate, and incubated for 30 minutes with 24 μL of AKT1 protein in 25 mM TRIS buffer pH 7.5, 100 mM NaCl, 0.1% 2-mercaptoethanol, pre-mixed with environmentally sensitive fluorescent dye Sypro Orange (12.5×). The plates were centrifuged for […] @ 2000 rpm and 25° C. before the analysis on the IQ5 Real time PCR machine (Biorad). The thermal stability of the protein-ligand complex was monitored by changes in Sypro Orange fluorescence while subjecting the binding mixture to a temperature gradient of 30 to 75° C. at 1° C./min heating rate. Shifts in the protein melting temperature (ΔTm) greater than 0.6° C. compared to the protein alone were indicative of the inhibitor binding. Dissociation constants (Kd's) for the inhibitors were calculated from the melting curves as described in Mei-Chu-Lo et al., Anal.Biochem., 332: 153, 2004.

FGFR2 kinase = FGFR2 kinase fluorescent ELISA assay; type: biochemical
Procedure: A fluorescent ELISA assay was developed to identify and characterize inhibitors of FGFR2 kinase. This heterogeneous assay utilizes a biotinylated peptide with a tyrosine motif as a substrate and an anti-phospho-tyrosine antibody to measure phosphorylation of the substrate. The reaction is initiated by adding test compound, 37 uM Pyk2 substrate (Midwest Biotech, cat. #MBT2383) and 12.5 μM ATP (Roche, cat. #11 140 965 001), and 0.5 μM FGFR2 enzyme (Millipore, cat. #14-742) sequentially to a non-binding polypropylene V-well plate. All reagents are in assay buffer consisting of: 50 mM Tris-HCL, 0.02 mg/mL BSA, 10 mM MgCl2, 0.1 mM Na3VO4, 1 mM EGTA, 75 μM ATP, 0.01% NP-40, 2 mM DTT, 10% Glycerol. The reaction is incubated for 60 minutes. As the reaction proceeds, FGFR2 phosphorylates tyrosines in the peptide. The reaction mixture is then moved to a blocked streptavidin coated Nunc Maxisorb plate (coated with 100 ng streaptavidin from Pierce (cat #15-124) per well) allowing for the capture of the biotinylated peptide. Peptide is captured for 30 minutes at room temperature, the phosphorylation of peptide continues during this phase. The reaction is stopped by washing the Streptavidin plate 6 times with TBST. Phosphorylated peptide is detected by adding anti-phospho tyrosine antibody (purchased from Cell Signaling, cat. #9411, diluted 1:3000), unbound antibody is removed by washing 6 times with TBST. Secondary detection is performed using Alkaline Phosphatase tagged goat anti-mouse antibody (purchased from Pierce, cat. #31320, diluted 1:4000) for one hour. Unbound secondary antibody is removed by washing 6 times with TBST.
The fluorescent readout is initiated by the addition of Promega Attophos substrate (purchased from Promega; Kit catalog number: S1000, dilution=6 mg/10 mL), which when dephosphorylated by Alkaline phosphatase emits a fluorescent signal of […] when excited by a signal […]. This reading is done on the Perkin Elmer Envision system. Compounds which prevent the FGFR2 from phosphorylating the peptide result in a lower fluorescent signal. The signal is directly proportional to the activity of FGFR2 and compound inhibition of FGFR2 is monitored by a decrease in signal.

p70S6K = target: T1, p70S6K (Homo sapiens, UniProt P23443); assay: p70S6 kinase activity assay (HTRF); type: biochemical
T1 construct: purchased Upstate/Millipore
T1 sequence (P23443 whole entry): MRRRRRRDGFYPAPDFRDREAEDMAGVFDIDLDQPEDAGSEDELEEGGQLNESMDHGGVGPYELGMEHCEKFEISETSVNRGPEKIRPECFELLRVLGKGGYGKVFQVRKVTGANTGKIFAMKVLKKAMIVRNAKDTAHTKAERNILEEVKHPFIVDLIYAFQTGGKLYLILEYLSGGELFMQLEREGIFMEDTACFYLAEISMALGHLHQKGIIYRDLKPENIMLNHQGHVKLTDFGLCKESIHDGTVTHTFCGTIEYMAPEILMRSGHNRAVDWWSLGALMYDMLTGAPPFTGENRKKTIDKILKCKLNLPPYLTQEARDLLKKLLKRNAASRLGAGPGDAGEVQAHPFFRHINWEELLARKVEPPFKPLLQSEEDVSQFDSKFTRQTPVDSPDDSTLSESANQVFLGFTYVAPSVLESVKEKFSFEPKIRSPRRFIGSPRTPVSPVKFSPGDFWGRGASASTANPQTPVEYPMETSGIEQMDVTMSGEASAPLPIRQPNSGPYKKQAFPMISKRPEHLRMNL
Procedure: p70S6K activity was assayed using Cisbio's homogeneous time-resolved fluorescence (HTRF®) technology. The extent of phosphorylation of the biotinylated peptide substrate STK-S3 is determined using a phospho-specific STK Antibody labeled with Eu^3+-cryptate and streptavidin-XL665 that will bind to the biotin on the peptide. When in close proximity, excitation of the Eu^3+ cryptate donor fluorophore results in fluorescence resonance energy transfer (FRET) to the XL665 acceptor fluorophore and the emission signal from XL665 is measured.
The assay is performed using reagents from the HTRF® KinEASE™-STK kit from Cisbio including enzymatic buffer (50 mM HEPES pH7, 0.02% NaN3, 0.01% BSA, and 0.1 mM Na3VO4), STK-S3 substrate-biotin, Eu^3+-Cryptate labeled STK antibody, Streptavidin-XL665, and detection buffer (50 mM HEPES pH 7, 0.1% BSA, 0.8M KF, and 20 mM EDTA). Test inhibitors and controls (staurosporine) are prepared at 5× the desired final concentration. Test compound (5.0 μL), p70S6 (10 μL) from Upstate/Millipore (final concentration is 2.5 ng/well), and 10 μL substrate/ATP are added to each well of a reaction plate (Corning 96-well half-area solid black nonbinding surface plate). All reaction components are diluted in enzymatic buffer supplemented with 2 mM MgCl2 and 1 mM DTT. The final concentration of STK-S3 substrate is 500 nM and the final concentration of ATP is 100 μM.

Chain of full length inactive AKT1 protein (P31749 whole entry): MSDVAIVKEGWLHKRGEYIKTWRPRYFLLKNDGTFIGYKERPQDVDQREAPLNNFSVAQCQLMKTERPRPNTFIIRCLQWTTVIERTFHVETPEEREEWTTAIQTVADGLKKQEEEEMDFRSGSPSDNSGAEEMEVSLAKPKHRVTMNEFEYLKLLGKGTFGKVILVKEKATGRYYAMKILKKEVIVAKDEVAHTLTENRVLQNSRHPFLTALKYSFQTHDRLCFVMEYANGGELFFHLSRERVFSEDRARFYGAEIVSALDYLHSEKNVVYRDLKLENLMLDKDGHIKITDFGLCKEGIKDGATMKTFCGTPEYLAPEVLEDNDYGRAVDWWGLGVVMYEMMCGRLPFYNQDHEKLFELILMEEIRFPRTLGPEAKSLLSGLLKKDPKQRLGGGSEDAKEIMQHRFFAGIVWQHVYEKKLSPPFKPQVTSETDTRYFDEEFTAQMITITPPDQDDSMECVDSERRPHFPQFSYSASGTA

Substance	AKT activity [1]	FGFR2 kinase activity (FGFR2 kinase)	p70S6 kinase activity (p70S6K)
2-acetamido-N-(3-(5-benzoyl-7H-pyrrolo[2,3-d]pyrimidin-4-ylamino)phenyl)acetamide [Compound 2a]	− (A negative sign indicates that inhibition is less than 25%)	− (A negative sign indicates that inhibition is less than 25%)	+ (A positive sign indicates that inhibition is greater or equal to 25%)
3-acetamido-N-(3-(5-benzoyl-7H-pyrrolo[2,3-d]pyrimidin-4-ylamino)phenyl)propanamide [Compound 4a]	− (A negative sign indicates that inhibition is less than 25%)	− (A negative sign indicates that inhibition is less than 25%)	+ (A positive sign indicates that inhibition is greater or equal to 25%)
(4-(3-aminophenylamino)-7H-pyrrolo[2,3-d]pyrimidin-5-yl)(phenyl)methanone [Compound 5a]	+ (A positive sign indicates that inhibition is greater or equal to 25%)	− (A negative sign indicates that inhibition is less than 25%)	+ (A positive sign indicates that inhibition is greater or equal to 25%)
N-(3-(3-benzoyl-1H-indol-4-ylamino)phenyl)-3-(pyridin-3-yl)propanamide [Compound 1a]	+ (A positive sign indicates that inhibition is greater or equal to 25%)	− (A negative sign indicates that inhibition is less than 25%)	+ (A positive sign indicates that inhibition is greater or equal to 25%)
N-(3-(5-benzoyl-7-methyl-7H-pyrrolo[2,3-d]pyrimidin-4-ylamino)phenyl)acetamide [Compound 6a]	+ (A positive sign indicates that inhibition is greater or equal to 25%)	− (A negative sign indicates that inhibition is less than 25%)	− (A negative sign indicates that inhibition is less than 25%)
N-(3-(5-benzoyl-7H-pyrrolo[2,3-d]pyrimidin-4-ylamino)phenyl)-2-(dimethylamino)acetamide [Compound 7a]	− (A negative sign indicates that inhibition is less than 25%)	− (A negative sign indicates that inhibition is less than 25%)	+ (A positive sign indicates that inhibition is greater or equal to 25%)
N-(3-(5-benzoyl-7H-pyrrolo[2,3-d]pyrimidin-4-ylamino)phenyl)-4-(dimethylamino)butanamide [Compound 3a]	− (A negative sign indicates that inhibition is less than 25%)	− (A negative sign indicates that inhibition is less than 25%)	+ (A positive sign indicates that inhibition is greater or equal to 25%)
N-(3-(5-benzoyl-7H-pyrrolo[2,3-d]pyrimidin-4-ylamino)phenyl)-5-(pyrrolidin-1-yl)pentanamide [Compound 8a]	+ (A positive sign indicates that inhibition is greater or equal to 25%)	+ (A positive sign indicates that inhibition is greater or equal to 25%)	− (A negative sign indicates that inhibition is less than 25%)
N-(3-(5-benzoyl-7H-pyrrolo[2,3-d]pyrimidin-4-ylamino)phenyl)acetamide [Compound 9a]	+ (A positive sign indicates that inhibition is greater or equal to 25%)	− (A negative sign indicates that inhibition is less than 25%)	− (A negative sign indicates that inhibition is less than 25%)
N^1-(3-(5-benzoyl-7H-pyrrolo[2,3-d]pyrimidin-4-ylamino)phenyl)succinamide [Compound 10a]	− (A negative sign indicates that inhibition is less than 25%)	+ (A positive sign indicates that inhibition is greater or equal to 25%)	− (A negative sign indicates that inhibition is less than 25%)
